According to US10660967B2, “Curcumin conjugates and methods of use thereof” (priority 2016, dated 2020):

System: carrageenan induced paw edema
Assay: Anti-inflammatory activity: acute carrageenan induced paw edema in rats
Format: in vivo, Wister rats
Conditions: 10 mg kg^−1 indomethacin mol equivalent; for % inhibition of edema / Mean edema thickness: intraperitoneally; for Mean edema thickness: mean ± SE; for Potency (% inhibition of edema relative to that of indomethacin reference standard): at 4 h effect
Procedure: The anti-inflammatory activity of the tested compounds was determined in vivo by the acute carrageenan induced paw edema standard method in rats. See, Naumov, et al., Bioorg. Med. Chem. Lett, 25: 2314-2320 (2015), Tiwari, et al., Org. Biomol. Chem, 12: 7238-7249 (2014), Girgis, et al., Eur. J. Med. Chem, 50: 1-8 (2012), Barsoum, et al., Eur. J. Med. Chem, 44: 2172-2177 (2009), Girgis, et al., Eur. J. Med. Chem, 44: 1972-1977 (2009), Girgis, et al., Eur. J. Med. Chem, 44: 1257-1264 (2009), Girgis, et al., Eur. J. Med. Chem, 44: 91-100 (2009), Girgis, et al., Eur. J. Med. Chem, 43: 2116-2121 (2008), Girgis, et al., Bioorg. Med. Chem, 14: 8527-8532 (2006), and Barsoum, et al., Bioorg. Med. Chem, 14: 3929-3937 (2006).
Adult Wister rats of either sex (pregnant female animals were excluded) weighing 120-150 g were divided into 18 groups of 6 animals each. […] The control group was given DMSO only. Carrageenan paw edema was induced by subcutaneous injection of freshly prepared 1% solution of carrageenan in saline (0.9%, 0.1 ml per rat) into subplantar tissue of the right hind paw of rats. The thickness of the paw was measured (in mm) after successive time intervals (1, 2,3,4 and 24 h) and compared with the initial hind paw thickness of each rat for determining the edema thickness. Data were collected, checked, revised and analyzed. Quantitative variables from normal distribution were expressed as means±SE “standard error”. The anti-inflammatory activity was expressed as percentage inhibition of edema thickness in treated animals in comparison with the control group according to eqn. (1)
Where, Vc and Vt are the mean of edema paw thickness for the control and tested compound treated animal groups, respectively.

SMILES | % inhibition of edema (1 h) [%] | Mean edema thickness (1 h) [mm] | % inhibition of edema (2 h) [%] | Mean edema thickness (2 h) [mm] | % inhibition of edema (3 h) [%] | Mean edema thickness (3 h) [mm] | % inhibition of edema (4 h) [%] | Mean edema thickness (4 h) [mm] | % inhibition of edema (24 h) [%] | Mean edema thickness (24 h) [mm] | Potency (% inhibition of edema relative to that of indomethacin reference standard)
COc1ccc2c(c1)c(CC(=O)O)c(C)n2C(=O)c1ccc(Cl)cc1 [Compound 2] | 53 | 1.11 ± 0.12 | 59 | 0.85 ± 0.09 | 67 | 0.59 ± 0.06 | 87 | 0.18 ± 0.03 | 86 | 0.12 ± 0.02 | 100
CC(C)Cc1ccc(C(C)C(=O)O)cc1 (centres unmarked) [Compound 3] | 20 | 1.93 ± 0.21 | 60 | 0.82 ± 0.13 | 65 | 0.63 ± 0.09 | 79 | 0.29 ± 0.01 | 14 | 0.71 ± 0.04 | –
COc1cc(/C=C/C(=O)CC(=O)/C=C/c2ccc(O)c(OC)c2)ccc1O [Compound 4] | 12 | 2.12 ± 0.19 | 60 | 0.82 ± 0.11 | 75 | 0.45 ± 0.08 | 85 | 0.21 ± 0.08 | 36 | 0.53 ± 0.10 | 98
COc1cc(/C=C/C(=O)CC(=O)/C=C/c2ccc(OC(=O)CNC(=O)OCc3ccccc3)c(OC)c2)ccc1OC(=O)CNC(=O)OCc1ccccc1 [Compound 5] | 64 | 0.87 ± 0.16 | 32 | 1.41 ± 0.19 | 37 | 1.13 ± 0.22 | 34 | 0.92 ± 0.20 | 0 | 0.83 ± 0.19 | 39
COc1cc(/C=C/C(=O)CC(=O)/C=C/c2ccc(OC(=O)[C@H](C)NC(=O)OCc3ccccc3)c(OC)c2)ccc1OC(=O)[C@H](C)NC(=O)OCc1ccccc1 [Compound 6] | 56 | 1.05 ± 0.24 | 23 | 1.59 ± 0.21 | 22 | 1.40 ± 0.19 | 12 | 1.23 ± 0.25 | 0 | 0.83 ± 0.17 | 14
COc1cc(/C=C/C(=O)CC(=O)/C=C/c2ccc(OC(=O)C(C)NC(=O)OCc3ccccc3)c(OC)c2)ccc1OC(=O)C(C)NC(=O)OCc1ccccc1 (centres unmarked) [Compound 7] | 72 | 0.67 ± 0.09 | 87 | 0.26 ± 0.07 | 97 | 0.05 ± 0.02 | 100 | 0.00 ± 0.00 | 100 | 0.00 ± 0.00 | 115
COc1cc(/C=C/C(=O)CC(=O)/C=C/c2ccc(OC(=O)[C@@H](NC(=O)OCc3ccccc3)C(C)C)c(OC)c2)ccc1OC(=O)[C@@H](NC(=O)OCc1ccccc1)C(C)C [Compound 8] | 51 | 1.17 ± 0.26 | 20 | 1.65 ± 0.23 | 19 | 1.45 ± 0.20 | 12 | 1.23 ± 0.19 | 2 | 0.81 ± 0.11 | 14
COc1cc(/C=C/C(=O)CC(=O)/C=C/c2ccc(OC(=O)[C@H](CC(C)C)NC(=O)OCc3ccccc3)c(OC)c2)ccc1OC(=O)[C@H](CC(C)C)NC(=O)OCc1ccccc1 [Compound 9] | 34 | 1.59 ± 0.18 | 10 | 1.85 ± 0.21 | 10 | 1.61 ± 0.18 | 11 | 1.25 ± 0.09 | 1 | 0.82 ± 0.08 | 13
COc1cc(/C=C/C(=O)CC(=O)/C=C/c2ccc(OC(=O)[C@H](CCSC)NC(=O)OCc3ccccc3)c(OC)c2)ccc1OC(=O)[C@H](CCSC)NC(=O)OCc1ccccc1 [Compound 10] | 76 | 0.58 ± 0.15 | 80 | 0.41 ± 0.11 | 86 | 0.25 ± 0.08 | 88 | 0.17 ± 0.02 | 94 | 0.05 ± 0.01 | 101
COc1cc(/C=C/C(=O)CC(=O)/C=C/c2ccc(OC(=O)[C@H](Cc3ccccc3)NC(=O)OCc3ccccc3)c(OC)c2)ccc1OC(=O)[C@H](Cc1ccccc1)NC(=O)OCc1ccccc1 [Compound 11] | 59 | 1.00 ± 0.07 | 24 | 1.56 ± 0.09 | 9 | 1.63 ± 0.16 | 5 | 1.38 ± 0.10 | 1 | 0.82 ± 0.13 | 6
COc1cc(/C=C/C(=O)CC(=O)/C=C/c2ccc(OC(=O)[C@H](Cc3c[nH]c4ccccc34)NC(=O)OCc3ccccc3)c(OC)c2)ccc1OC(=O)[C@H](Cc1c[nH]c2ccccc12)NC(=O)OCc1ccccc1 [Compound 12] | 37 | 1.52 ± 0.27 | 28 | 1.48 ± 0.22 | 24 | 1.36 ± 0.26 | 12 | 1.23 ± 0.19 | 1 | 0.82 ± 0.17 | 14
COc1cc(/C=C/C(=O)CC(=O)/C=C/c2ccc(OC(=O)CNC(=O)OCC3c4ccccc4-c4ccccc43)c(OC)c2)ccc1OC(=O)CNC(=O)OCC1c2ccccc2-c2ccccc21 [Compound 13] | 40 | 1.45 ± 0.15 | 62 | 0.78 ± 0.16 | 74 | 0.47 ± 0.11 | 79 | 0.29 ± 0.04 | 82 | 0.15 ± 0.02 | 91
